Test results taken from publication PMC11952846, “The sterol-regulating human ARV1 binds cholesterol and phospholipids through its conserved ARV1 homology domain” (The Journal of Biological Chemistry, 2025).

Columns and labels:
[1] = target: T1, GST-ARV1 (full-length ARV1) (Homo sapiens, UniProt Q9H2C2); test: Lipid overlay far western; assay type: binding; conditions: lipid-embedded membrane strips, incl. sphingolipid strip
T1 construct: Expresses full length ARV1; made in house; host or cells: E. coli BL21 (pGEX-4T1)
T1 sequence (Q9H2C2 1-271): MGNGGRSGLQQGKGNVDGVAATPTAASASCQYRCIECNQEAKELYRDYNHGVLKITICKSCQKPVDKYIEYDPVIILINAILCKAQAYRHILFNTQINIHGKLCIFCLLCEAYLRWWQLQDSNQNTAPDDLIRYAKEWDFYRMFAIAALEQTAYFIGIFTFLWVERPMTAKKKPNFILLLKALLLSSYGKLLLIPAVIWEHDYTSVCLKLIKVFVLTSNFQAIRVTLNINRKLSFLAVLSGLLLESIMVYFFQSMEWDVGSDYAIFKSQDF
Method: (§1) Lipid overlays were blocked in TBST-BSA (100 mM Tris–HCl buffer, pH 7.5, 150 mM NaCl, 0.5% Tween 20, 3% bovine serum albumin) for 1 h and subsequently washed eight separate times with TBST for 2 min each. Overlays were incubated with 0.5 μg/ml GST-tagged or 6XHIS-tagged proteins in 3% TBST-BSA buffer containing 0.1% Triton X-100, for 1 h at room temperature and washed as above. Overlays were incubated with either anti-GST or anti-6XHIS monoclonal antibodies at a 1:1000 dilution in TBST-BSA for 1 h at room temperature followed by eight washes in TBST. Overlays were visualized using Immobilon Western Chemiluminescent horseradish peroxidase substrate and protein–lipid interaction was detected using a GE ImageQuant LAS 3000 imager.

GST-ARV1-N98 = target: T2, GST-ARV1-N98 (Homo sapiens, UniProt Q9H2C2); test: Lipid overlay far western; assay type: binding; conditions: lipid-embedded membrane strips, incl. sphingolipid strip
T2 construct: Expresses amino-terminal 98 amino acids of ARV1; made in house; host or cells: E. coli BL21 (pGEX-4T1)
T2 sequence (Q9H2C2 1-98): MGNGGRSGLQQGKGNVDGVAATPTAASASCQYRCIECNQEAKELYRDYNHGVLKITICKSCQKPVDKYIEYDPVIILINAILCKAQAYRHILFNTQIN
Method: as §1

GST-Annexin A2 = GST-Annexin A2 (Homo sapiens, UniProt P07355); test: Lipid overlay far western (positive control protein); assay type: binding; conditions: lipid-embedded membrane strips, incl. sphingolipid strip
Sequence of GST-Annexin A2 (P07355 whole entry): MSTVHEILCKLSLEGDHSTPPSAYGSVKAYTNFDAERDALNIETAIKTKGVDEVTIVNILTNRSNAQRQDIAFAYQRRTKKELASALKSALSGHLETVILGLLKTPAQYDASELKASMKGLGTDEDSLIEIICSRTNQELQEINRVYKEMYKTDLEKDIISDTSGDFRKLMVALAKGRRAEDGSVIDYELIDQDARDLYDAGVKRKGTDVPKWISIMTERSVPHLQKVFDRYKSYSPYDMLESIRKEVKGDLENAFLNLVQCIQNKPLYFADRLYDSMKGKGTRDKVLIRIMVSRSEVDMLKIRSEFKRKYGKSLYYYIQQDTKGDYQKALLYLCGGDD
Method: as §1

GST-ARV1-N70 = target: T3, GST-ARV1-N70 (Homo sapiens, UniProt Q9H2C2); test: Lipid overlay far western, truncation; assay type: binding; conditions: compared to ARV1-N98
T3 construct: Expresses amino-terminal 70 amino acids of ARV1; made in house; host or cells: E. coli BL21 (pGEX-4T1)
T3 sequence (Q9H2C2 1-70): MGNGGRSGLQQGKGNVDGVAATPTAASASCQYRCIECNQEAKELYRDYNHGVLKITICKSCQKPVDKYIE
Method: as §1

6XHIS-ARV1-N98 C34/C37A = target: T4, 6XHIS-ARV1-N98 C34/C37A (Homo sapiens, UniProt Q9H2C2, C34A/C37A); test: Lipid overlay far western, site-directed mutant; assay type: binding; conditions: compared to the ARV1-N98 protein
T4 construct: Expressing amino-terminal 98 amino acids of ARV1; made in house; host or cells: E. coli BL21 (pET-28a(+))
T4 sequence (Q9H2C2 1-98 C34A/C37A): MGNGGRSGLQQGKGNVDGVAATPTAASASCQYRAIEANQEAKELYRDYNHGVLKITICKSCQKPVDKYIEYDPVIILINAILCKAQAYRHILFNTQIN
Method: as §1

6XHIS-ARV1-N98 C58/C61A = target: T5, 6XHIS-ARV1-N98 C58/C61A (Homo sapiens, UniProt Q9H2C2, C58A/C61A); test: Lipid overlay far western, site-directed mutant; assay type: binding; conditions: compared to the ARV1-N98 protein
T5 construct: Expressing amino-terminal 98 amino acids of ARV1; made in house; host or cells: E. coli BL21 (pET-28a(+))
T5 sequence (Q9H2C2 1-98 C58A/C61A): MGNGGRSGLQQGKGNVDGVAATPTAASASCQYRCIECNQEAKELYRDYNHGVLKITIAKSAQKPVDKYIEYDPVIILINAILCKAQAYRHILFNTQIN
Method: as §1

6XHIS-ARV1-N98 K54/K59A = target: T6, 6XHIS-ARV1-N98 K54/K59A (Homo sapiens, UniProt Q9H2C2, K54A/K59A); test: Lipid overlay far western, site-directed mutant; assay type: binding; conditions: compared to the ARV1-N98 protein
T6 construct: Expressing amino-terminal 98 amino acids of ARV1; made in house; host or cells: E. coli BL21 (pET-28a(+))
T6 sequence (Q9H2C2 1-98 K54A/K59A): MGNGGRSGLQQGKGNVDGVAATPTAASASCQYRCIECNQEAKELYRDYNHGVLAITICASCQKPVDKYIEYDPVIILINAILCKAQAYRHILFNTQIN
Method: as §1

6XHIS-ARV1-N98 K67A = target: T7, 6XHIS-ARV1-N98 K67A (Homo sapiens, UniProt Q9H2C2, K67A); test: Lipid overlay far western, site-directed mutant; assay type: binding; conditions: compared to the ARV1-N98 protein
T7 construct: Expressing amino-terminal 98 amino acids of ARV1; made in house; host or cells: E. coli BL21 (pET-28a(+))
T7 sequence (Q9H2C2 1-98 K67A): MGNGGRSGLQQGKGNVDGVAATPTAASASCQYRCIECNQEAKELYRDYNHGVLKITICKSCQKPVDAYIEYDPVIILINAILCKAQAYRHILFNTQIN
Method: as §1

6XHIS-ARV1-N98 N94Q = target: T8, 6XHIS-ARV1-N98 N94Q (Homo sapiens, UniProt Q9H2C2, N94Q); test: Lipid overlay far western, site-directed mutant; assay type: binding; conditions: compared to the ARV1-N98 protein
T8 construct: Expressing amino-terminal 98 amino acids of ARV1; made in house; host or cells: E. coli BL21 (pET-28a(+))
T8 sequence (Q9H2C2 1-98 N94Q): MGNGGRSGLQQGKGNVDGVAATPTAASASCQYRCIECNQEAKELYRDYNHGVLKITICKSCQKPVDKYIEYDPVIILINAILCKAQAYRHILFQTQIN
Method: as §1

GST-ARV1-N98 C34/C37A = target: T9, GST-ARV1-N98 C34/C37A (Homo sapiens, UniProt Q9H2C2, C34A/C37A); test: Liposome binding assay, site-directed mutant; conditions: PC:PL, sulfatide or PI(4)P liposomes
T9 construct: Expresses amino-terminal 98 amino acids of ARV1; made in house; host or cells: E. coli BL21 (pGEX-4T1)
T9 sequence (Q9H2C2 1-98 C34A/C37A): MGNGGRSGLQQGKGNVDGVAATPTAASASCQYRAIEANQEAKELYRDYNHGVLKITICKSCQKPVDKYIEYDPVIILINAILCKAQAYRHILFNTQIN
Method: (§2) Lyophilized lipids were reconstituted in chloroform at 10 mg/ml and stored in glass tubes with Teflon tops at −20 °C until use. One milliliter of 10 mg/ml stock was dried under a stream of nitrogen in a glass tube until a lipid cake/film was formed. The lipid cake was then rehydrated in BLT rehydration buffer (5 mM Tris/HCl, pH 7.4, containing 150 mM NaCl) to a concentration of 1 mg/ml. Lipid suspensions were subjected to three freeze/thaw cycles using a dry ice ethanol/[…] water bath to encapsulate the buffer and improve liposome formation. The suspension and lipid extruder were equilibrated to temperature for 10 min and liposomes were extruded using […] polycarbonate membranes (Avestin). Liposomes were made by mixing stock lipid PL (1 mg/ml) with PC (10 mg/ml).
(§3) Sulfatide liposomes were generated as previously described ([94]). All lipids were resuspended in organic solvents as per manufacturer’s instructions. Liposomes were prepared with mixing PC:PE:cholesterol:sulfatides (1:1:1:4) and subsequently dried down by lyophilization to obtain lipid films. Lipids were hydrated in 20 mM Tris–HCL, pH 6.8, containing 100 mM NaCl at a concentration of 1 mg/ml.
(§4) PI(4)P liposomes were generated as described by Knodler et al. ([95]), with some modifications. Briefly, liposomes were generated at a lipid concentration of 10 mg/ml. Liposomes contained PC (60%), PI (30%), PE (8%), and PI(4)P (2%). Lipid solution was dried down and resuspended in liposome buffer (20 mM Hepes–HCL, pH 7.4, containing 1 mM EDTA and 50 mM potassium acetate). Liposomes were formed by sonication on ice.
(§5) Liposomes were serial diluted in floatation buffer (100 mM NaCl, 2 mM EDTA, pH 5.5) to a final concentration of 0.1 mg/ml. Nine hundred microliters of liposome solution was placed in clear ultracentrifuge tubes and mixed with 100 μl of 0.01 μg/ml of protein. The liposome/protein solution was incubated at room temperature for 1 h with occasional shaking. An initial 100 μl of liposome/protein solution (liposomes) was removed and the remaining 900 μl was centrifuged at 50,000g for 20 min at 4 °C. The pellet was resuspended in 800 μl of fresh floatation buffer, centrifuged as above, and 800 μl of supernatant was removed (wash 1). This was repeated a second time and again 800 μl of supernatant was removed (wash 2). The final pellet was resuspended in 100 μl of floatation buffer plus SDS treatment buffer (pellet). Thirty microliters of each fraction was run on a 15% SDS-PAGE gel and probed with an anti-GST monoclonal antibody at a 1:1500 dilution.

GST-ARV1-N98 C58/C61A = target: T10, GST-ARV1-N98 C58/C61A (Homo sapiens, UniProt Q9H2C2, C58A/C61A); test: Liposome binding assay, site-directed mutant; conditions: PC:PL, sulfatide or PI(4)P liposomes
T10 construct: Expresses amino-terminal 98 amino acids of ARV1; made in house; host or cells: E. coli BL21 (pGEX-4T1)
T10 sequence (Q9H2C2 1-98 C58A/C61A): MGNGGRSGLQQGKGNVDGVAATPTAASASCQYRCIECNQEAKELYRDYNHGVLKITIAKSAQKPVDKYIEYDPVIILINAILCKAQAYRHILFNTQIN
Method: as §2, §3, §4, §5

GST-ARV1-N98 K54/K59A = target: T11, GST-ARV1-N98 K54/K59A (Homo sapiens, UniProt Q9H2C2, K54A/K59A); test: Liposome binding assay, site-directed mutant; conditions: PC:PL, sulfatide liposomes
T11 construct: Expresses amino-terminal 98 amino acids of ARV1; made in house; host or cells: E. coli BL21 (pGEX-4T1)
Method: as §2, §3, §4, §5

GST-ARV1-N98 K67A = target: T12, GST-ARV1-N98 K67A (Homo sapiens, UniProt Q9H2C2, K67A); test: Liposome binding assay, site-directed mutant; conditions: PC:PL, sulfatide liposomes
T12 construct: Expresses amino-terminal 98 amino acids of ARV1; made in house; host or cells: E. coli BL21 (pGEX-4T1)
T12 sequence (Q9H2C2 1-98 K67A): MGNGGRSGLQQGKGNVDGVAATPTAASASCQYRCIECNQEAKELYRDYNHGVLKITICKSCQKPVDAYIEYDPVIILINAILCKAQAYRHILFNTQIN
Method: as §2, §3, §4, §5

GST-ARV1-N98 N94A = target: T13, GST-ARV1-N98 N94A (Homo sapiens, UniProt Q9H2C2, N94A); test: Liposome binding assay, site-directed mutant; conditions: PC:PL, sulfatide or PI(4)P liposomes
T13 construct: Expresses amino-terminal 98 amino acids of ARV1; made in house; host or cells: E. coli BL21 (pGEX-4T1)
T13 sequence (Q9H2C2 1-98 N94A): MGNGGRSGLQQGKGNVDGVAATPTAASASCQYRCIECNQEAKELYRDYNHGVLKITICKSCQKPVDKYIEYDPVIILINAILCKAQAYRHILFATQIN
Method: as §2, §3, §4, §5

For sulfatide, the lipid-protein interaction [1] was “interacted”, the lipid-protein interaction (GST-ARV1-N98) was “interacted” and the lipid-protein interaction (GST-Annexin A2) was “interacted”. For the same substance, the “change of lipid-protein interaction” value (GST-ARV1-N70) was “loss of interaction”, the “change of lipid-protein interaction” value (6XHIS-ARV1-N98 C34/C37A) was “eliminated any interaction” and the “change of lipid-protein interaction” value (6XHIS-ARV1-N98 C58/C61A) was “eliminated any interaction”. For the same substance, the “change of lipid-protein interaction” value (6XHIS-ARV1-N98 K54/K59A) was “abolished”, the “change of lipid-protein interaction” value (6XHIS-ARV1-N98 K67A) was “weakened” and the “change of lipid-protein interaction” value (6XHIS-ARV1-N98 N94Q) was “more strongly”. The liposome binding (GST-ARV1-N98 C34/C37A) was “not”, the liposome binding (GST-ARV1-N98 C58/C61A) was “did not bind” and the liposome binding (GST-ARV1-N98 K54/K59A) was “unable to bind”. For the same substance, the liposome binding (GST-ARV1-N98 K67A) was “unable to bind” and the liposome binding (GST-ARV1-N98 N94A) was “very weak”.
